From patent US4546076A, “Enzymatic process for the determination of beta-lactam antibiotics” (U C B Societe Anonyme, priority 1982, dated 1985)

What was measured:
Assay type in all cases: biochemical
[1] = biological target: T1, D-alanyl-D-alanine-carboxypeptidase produced by Actinomadura R 39 (enzyme R 39), immobilized (Actinomadura sp., UniProt P39045); test: Dosage of cephalosporin C in serum with immobilized enzyme R 39 (Example 3)
T1 construct: which is excreted by Actinomadura R 39 when this microorganism; made in house; host or cells: Actinomadura R 39 (natural producer; deposit Institut Pasteur No. I-127), purified as in Frere et al., Biochem. J. 143 (1974) 233-240
Experimental: (§1) A series of 1 ml milk samples each containing a known concentration of penicillin G and two 1 ml milk samples (blank and control) not containing penicillin G are prepared.
(§2) 5.5 mg of immobilized enzyme R 39 (=3 picomols of enzyme) are added to each sample and the mixture is incubated for 20 minutes at 37° C.
(§3) The milk is then separated from the immobilized enzyme by filtration and the immobilized enzyme is washed three times with 1 ml of 0.1M Hepes buffer (pH=7.7) containing 0.1M NaCl and 0.05M MgCl2.
(§4) Either 20 μl of 0.1M Hepes buffer (pH=7.7) containing 0.1M NaCl and 0.05M MgCl2 and 10 μl of the substrate solution (in the case of the control sample and the samples containing penicillin G), or 20 μl of the Hepes buffer and 10 μl of water (in the case of the blank sample), are then added to the separated and washed immobilized enzyme. The mixture is incubated for 30 minutes at 37° C.
(§5) At the end of this incubation, 2 μl of the D-amino acid oxidase suspension, 60 μl of the FAD solution, 10 μl of the peroxidase solution and 5 μl of the o-dianisidine solution are added respectively to the product obtained; the mixture is then incubated again for 10 minutes at 37° C.
(§6) The optical density of the colored solutions obtained is then measured on a spectrophotometer. For this purpose, 1 ml of a methanol/water solution (proportions 1:1) is added to the cell and the optical density is measured at 460 nm.
(§7) The optical density value found for the blank sample is subtracted from the optical density values found respectively for the control sample and for the other samples. Finally, the percentage residual enzymatic activity is calculated for each sample from the optical density values thus obtained.
The procedure of Example 1 is followed, using the same reagents but replacing the 1 ml milk samples by 1 ml serum samples containing each a known concentration of cephalosporin C.

[2] = biological target: T1, D-alanyl-D-alanine-carboxypeptidase produced by Actinomadura R 39 (enzyme R 39), immobilized; test: Dosage of cephalosporin C in serum with immobilized enzyme R 39 at higher temperature (Example 4)
Experimental: The procedure of Example 3 is followed but each incubation is carried out at 47° C. and at half the time.
Moreover, to each ml sample of serum, there is previously added 100 μl of 0.5M (pH 7.7) Hepes buffer containing 0.5M NaCl and 0.25M MgCl2.

[3] = biological target: T1, D-alanyl-D-alanine-carboxypeptidase produced by Actinomadura R 39 (enzyme R 39), immobilized; test: Determination of penicillin G in milk with immobilized enzyme R 39 (Example 1); details: for coloration observed / optical density at 460 nm / optical density found minus optical density of the blank sample / percentage residual enzymatic activity: 1 ml milk; for percentage residual enzymatic activity: 20 min
Experimental: as §1, §2, §3, §4, §5, §6, §7

[4] = biological target: T1, D-alanyl-D-alanine-carboxypeptidase produced by Actinomadura R 39 (enzyme R 39), immobilized; test: Determination of penicillin G in serum with immobilized enzyme R 39 (Example 2); details: 1 ml serum; for percentage residual enzymatic activity: 20 min
Experimental: as §1, §2, §3, §4, §5, §6, §7
(§8) The procedure of Example 1 is followed, using the same reagents but replacing the 1 ml milk samples by 1 ml serum or 1 ml urine samples.

[5] = biological target: T1, D-alanyl-D-alanine-carboxypeptidase produced by Actinomadura R 39 (enzyme R 39), immobilized; test: Determination of penicillin G in urine with immobilized enzyme R 39 (Example 2); details: 1 ml urine; for percentage residual enzymatic activity: 20 min
Experimental: as §1, §2, §3, §4, §5, §6, §7, §8

[6] = cephalosporin C 1 ng/ml, 1 ml serum, 37° C.
[7] = cephalosporin C 2 ng/ml, 1 ml serum, 37° C.
[8] = cephalosporin C 10 ng/ml, 1 ml serum, 37° C.
[9] = cephalosporin C 1 ng/ml, 1 ml serum, each incubation at 47° C. and half the time
[10] = cephalosporin C 2 ng/ml, 1 ml serum, each incubation at 47° C. and half the time
[11] = cephalosporin C 10 ng/ml, 1 ml serum, each incubation at 47° C. and half the time
[12] = penicillin G 0.0005 I.U./ml, 1st series
[13] = penicillin G 0.0005 I.U./ml, 2nd series
[14] = penicillin G 0.0010 I.U./ml, 1st series
[15] = penicillin G 0.0010 I.U./ml, 2nd series
[16] = penicillin G 0.0015 I.U./ml, 2nd series
[17] = penicillin G 0.0020 I.U./ml, 1st series
[18] = penicillin G 0.0020 I.U./ml, 2nd series
[19] = penicillin G 0.0041 I.U./ml, 1st series
[20] = penicillin G 0.0082 I.U./ml, 1st series

T1 sequence (P39045 50-538): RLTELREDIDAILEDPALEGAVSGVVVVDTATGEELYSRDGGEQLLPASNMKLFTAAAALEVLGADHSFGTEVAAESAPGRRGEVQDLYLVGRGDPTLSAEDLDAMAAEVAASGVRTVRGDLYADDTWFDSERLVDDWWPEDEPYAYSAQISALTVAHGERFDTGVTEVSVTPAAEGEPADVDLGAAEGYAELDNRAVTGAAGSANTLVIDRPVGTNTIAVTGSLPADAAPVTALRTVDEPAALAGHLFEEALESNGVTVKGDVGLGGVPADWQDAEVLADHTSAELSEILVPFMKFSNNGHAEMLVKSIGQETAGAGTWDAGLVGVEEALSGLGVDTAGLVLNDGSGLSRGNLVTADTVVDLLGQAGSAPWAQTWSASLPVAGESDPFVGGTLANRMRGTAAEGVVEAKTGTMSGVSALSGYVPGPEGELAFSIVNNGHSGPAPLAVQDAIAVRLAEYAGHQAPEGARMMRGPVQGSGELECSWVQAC

SMILES: CC(=O)OCC1=C(C(=O)O)N2C(=O)[C@@H](NC(=O)CCC[C@@H](N)C(=O)O)[C@H]2SC1 [cephalosporin C]
- remaining activity at 0.001 µg/mL ([1]; 20 min, read-out: percentage residual enzymatic activity): 44%
- remaining activity at 0.002 µg/mL ([1]; 20 min, cephalosporin C 2 ng/ml, 1 ml serum, 37° C., read-out: percentage residual enzymatic activity): 8%
- remaining activity at 0.01 µg/mL ([1]; 20 min, cephalosporin C 10 ng/ml, 1 ml serum, 37° C., read-out: percentage residual enzymatic activity): 0%
- coloration observed [1, 6]: light yellow
- optical density at 460 nm [1, 6]: 0.085
- optical density found minus optical density of the blank sample [1, 6]: 0.055
- coloration observed [1, 7]: light yellow
- optical density at 460 nm [1, 7]: 0.040
- optical density found minus optical density of the blank sample [1, 7]: 0.010
- coloration observed [1, 8]: light yellow
- optical density at 460 nm [1, 8]: 0.030
- optical density found minus optical density of the blank sample [1, 8]: 0.000
- remaining activity at 0.01 µg/mL ([2]; 10 min, read-out: percentage residual enzymatic activity): 0%
- remaining activity at 0.001 µg/mL ([2]; 10 min, cephalosporin C 1 ng/ml, 1 ml serum, each incubation at 47° C. and half the time, read-out: percentage residual enzymatic activity): 41%
- remaining activity at 0.002 µg/mL ([2]; 10 min, cephalosporin C 2 ng/ml, 1 ml serum, each incubation at 47° C. and half the time, read-out: percentage residual enzymatic activity): 0%
- coloration observed [2, 9]: light brown
- optical density at 460 nm [2, 9]: 0.095
- optical density found minus optical density of the blank sample [2, 9]: 0.060
- coloration observed [2, 10]: light yellow
- optical density at 460 nm [2, 10]: 0.035
- optical density found minus optical density of the blank sample [2, 10]: 0.000
- coloration observed [2, 11]: light yellow
- optical density at 460 nm [2, 11]: 0.040
- optical density found minus optical density of the blank sample [2, 11]: 0.005

SMILES: CC1(C)S[C@@H]2[C@H](NC(=O)Cc3ccccc3)C(=O)N2[C@H]1C(=O)O [penicillin G, benzylpenicillin]
- coloration observed [3, 12]: brown
- optical density at 460 nm [3, 12]: 0.170
- optical density found minus optical density of the blank sample [3, 12]: 0.135
- percentage residual enzymatic activity [3, 12]: 82%
- coloration observed [3, 13]: yellow-brown
- optical density at 460 nm [3, 13]: 0.145
- optical density found minus optical density of the blank sample [3, 13]: 0.110
- percentage residual enzymatic activity [3, 13]: 69%
- coloration observed [3, 14]: yellow-brown
- optical density at 460 nm [3, 14]: 0.150
- optical density found minus optical density of the blank sample [3, 14]: 0.115
- percentage residual enzymatic activity [3, 14]: 69%
- coloration observed [3, 15]: yellow-brown
- optical density at 460 nm [3, 15]: 0.100
- optical density found minus optical density of the blank sample [3, 15]: 0.065
- percentage residual enzymatic activity [3, 15]: 41%
- coloration observed [3, 16]: yellow
- optical density at 460 nm [3, 16]: 0.055
- optical density found minus optical density of the blank sample [3, 16]: 0.020
- percentage residual enzymatic activity [3, 16]: 12%
- coloration observed [3, 17]: light yellow
- optical density at 460 nm [3, 17]: 0.035
- optical density found minus optical density of the blank sample [3, 17]: 0.000
- percentage residual enzymatic activity [3, 17]: 0%
- coloration observed [3, 18]: light yellow
- optical density at 460 nm [3, 18]: 0.040
- optical density found minus optical density of the blank sample [3, 18]: 0.005
- percentage residual enzymatic activity [3, 18]: 3%
- coloration observed [3, 19]: light yellow
- optical density at 460 nm [3, 19]: 0.040
- optical density found minus optical density of the blank sample [3, 19]: 0.005
- percentage residual enzymatic activity [3, 19]: 3%
- coloration observed [3, 20]: light yellow
- optical density at 460 nm [3, 20]: 0.035
- optical density found minus optical density of the blank sample [3, 20]: 0.000
- percentage residual enzymatic activity [3, 20]: 0%
- residual enzymatic activity ([3]; sample containing 0.002 I.U. or more per ml of milk): zero
- concentration determined visually (light yellow coloration) [4]: at least 0.003 I.U./ml
- coloration observed ([4]; penicillin G 0.003 I.U./ml): light yellow
- optical density at 460 nm ([4]; penicillin G 0.003 I.U./ml): 0.035
- optical density found minus optical density of the blank sample ([4]; penicillin G 0.003 I.U./ml): 0.005
- percentage residual enzymatic activity ([4]; penicillin G 0.003 I.U./ml): 4%
- coloration observed ([4]; penicillin G 0.010 I.U./ml): light yellow
- optical density at 460 nm ([4]; penicillin G 0.010 I.U./ml): 0.030
- optical density found minus optical density of the blank sample ([4]; penicillin G 0.010 I.U./ml): 0.000
- percentage residual enzymatic activity ([4]; penicillin G 0.010 I.U./ml): 0%
- concentration determined visually (light yellow coloration) [5]: at least 0.003 I.U./ml
- coloration observed ([5]; penicillin G 0.003 I.U./ml): light yellow
- optical density at 460 nm ([5]; penicillin G 0.003 I.U./ml): 0.040
- optical density found minus optical density of the blank sample ([5]; penicillin G 0.003 I.U./ml): 0.010
- percentage residual enzymatic activity ([5]; penicillin G 0.003 I.U./ml): 8%
- coloration observed ([5]; penicillin G 0.010 I.U./ml): light yellow
- optical density at 460 nm ([5]; penicillin G 0.010 I.U./ml): 0.035
- optical density found minus optical density of the blank sample ([5]; penicillin G 0.010 I.U./ml): 0.005
- percentage residual enzymatic activity ([5]; penicillin G 0.010 I.U./ml): 4%
